Entries after “also recorded” stand apart in the source; their conditions may differ. Read-outs that look alike come from different tables or passages of the source.
Experiments:
[1] = tested on: cyclin-luciferase (cyc-luc) turnover, APC/C activation; assay: cyc-luc turnover in interphase Xenopus extracts induced to enter mitosis by non-degradable cyclin B; assay type: biochemical; settings: 200 μM compound; added to interphase extracts then induced to enter mitosis; average of three measurements
Description: FIG. 1. Functional classification of inhibitors. Compounds that scored in the initial screen were reacquired as dry powders and retested in Xenopus extracts in 4 assays at 200 μM concentration (32) as described (6). […] (A) Compounds and cyclin-luciferase were added to interphase extracts, which were then induced to enter mitosis by addition of non-degradable cyclin B. Percent inhibition of cyc-luc turnover by each compound is coded according to the grayscale shown at the bottom of the figure; specific values are available in Table 1. (B) Extracts were pre-treated with non-degradable cyclin B to allow entry into mitosis prior to addition of test compound and reporter protein. (C) Interphase extracts were treated by addition of recombinant Cdh1 to activate cyc-luc turnover. (D) Interphase extracts were treated with recombinant axin to induce turnover of β-catenin-luciferase.
The “Cmpd” column corresponds to the numbers used in FIG. 1; “Class” refers to the class of inhibitor described in FIG. 1 and the text. Columns A-D show percent inhibition in the four assays described in FIG. 1. (A) Interphase extracts (B) Mitotic extracts (C) Interphase extracts stimulated with Cdh1 (D) Degradation of a β-catenin reporter protein in interphase extracts stimulated with recombinant axin. […] “ID#” refers to the identification number of the inhibitor obtained from the NCI (prefaced by NSC) or Chembridge (prefaced by C).
Extracts were rapidly thawed and diluted to a final concentration of 75% in extract buffer (XB) just prior to assay (XB; 100 mM KCl, 0.1 mM CaCl2, 1 mM MgCl2, 10 mM potassium HEPES, pH 7.7, 50 mM sucrose). Extracts were kept on ice and supplemented with 1 mg/ml bovine ubiquitin (Sigma) unless otherwise stated. Cyc-luc expressed in reticulocyte lysate was diluted 1/200 for most assays. High-throughput screening utilized the bacterially expressed and purified cyclin-luc fusion protein, which was added to extracts at a final concentration of 0.1 μg/ml. To induce entrance into mitosis, cyclin BΔ90 protein was added to a final concentration of 10 μg/ml. For the dose response analysis, inhibitors were purchased from Calbiochem (San Diego, Calif.) and dissolved in DMSO as 10 mM stocks. Cyclin-luciferase and cyclin BΔ90 were mixed with interphase extract and placed on ice. Inhibitors were then added to extracts to yield a final DMSO concentration of 1%. 10 μl aliquots of extract were distributed into 384-well white Cliniplates (Labsystems), and cell cycle progression was initiated by warming the samples to room temperature. After 60 minutes, 30 μl of luciferin reagent (20 mM tricine pH 7.8, 470 μM D-Luciferin [Molecular Probes]), 270 μM Coenzyme A, 0.1 mM EDTA, 33 mM DTT, and 530 μM ATP) was added using a multidrop dispenser (Labsystems). Luminescence was measured on an Analyst plate reader (LJL Biosystems). The values for 3 replicates were averaged. For the dose response analysis, percent inhibition was calculated as 100*(T−M)/(I−M) where T equals the test value for the inhibitor, M equals the value in a mitotic extract lacking inhibitor, and I equals the value in an interphase extract. For certain experiments, methylated ubiquitin was added to interphase extracts at a concentration of 1 mg/ml in the presence or absence of added unmodified ubiquitin (1 mg/ml) used as competitor. Cyclin-luciferase and cyclin BΔ90 were then added. After 60 minutes, the reactions were stopped and analyzed as described above.
Dry compounds were redissolved at 20 mM concentration in DMSO, or a 50:50 water:DMSO mixture in certain cases. These compounds were then diluted ten-fold in XB and mixed thoroughly. For the assay in FIG. 1A, chilled interphase extract was mixed with cyclin BΔ90 (10 μg/ml) and cyc-luc (0.1 μg/ml) in bulk and then 27 μl of extract was pipetted to each well of a chilled 384-well plate.

[2] = target: T1, 20S core peptidase activity (Saccharomyces cerevisiae, UniProt P25043+P30656+P38624); assay: 20S core peptidase activity in native gel with fluorescent substrate; assay type: biochemical
T1 construct: made in house; host or cells: S. cerevisiae cells expressing Flag-tagged PRE1
Description: FIG. 6. […] (A) Purified 26S proteasomes were preincubated with test compounds before being resolved on a native gel. Following electrophoresis, the gel was stained with Coomassie Blue. […] Same as (A), except that following electrophoresis, the gel was incubated with fluorescent substrate to determine peptidase activity, which was visualized using a UV transilluminator (9). […] (C) Untreated 26S proteasomes were resolved on a native gel. Following electrophoresis, the gel was incubated with the peptidase substrate in the presence of ubistatin.
26S proteasomes were purified from S. cerevisiae cells expressing a Flag-tagged proteasomal subunit (PRE1) essentially as described (28).

CC(=O)Nc1ccc(SSc2ccc(NC(C)=O)c3cccnc23)c2ncccc12 [Compound 23]
percent inhibition of cyc-luc turnover, (A) Interphase extracts [1]: 100% | effect on 20S core peptidase activity [2]: without effect

O=S(=O)(O)c1ccc2cc3c(cc2c1)NN(c1ccc(/C=C/c2ccc(N4Nc5cc6ccc(S(=O)(=O)O)cc6cc5N4)cc2S(=O)(=O)O)c(S(=O)(=O)O)c1)N3 [Compound 59]
percent inhibition of cyc-luc turnover, (A) Interphase extracts [1]: 97% | effect on 20S core peptidase activity [2]: without affecting

O=C(Nc1ccc(/C=C/c2ccc(NC(=O)c3cc(S(=O)(=O)O)c4cccnc4c3O)cc2S(=O)(=O)O)c(S(=O)(=O)O)c1)c1cc(S(=O)(=O)O)c2cccnc2c1O [Compound 92]
percent inhibition of cyc-luc turnover, (A) Interphase extracts [1]: 60% | effect on 20S core peptidase activity ([2]; listed as C92): does not affect; also recorded: without affecting
